Experimental findings from article PMC10998878, “Inhibition of acyl-CoA binding protein (ACBP) by means of a GABAARγ2-derived peptide” (Cell Death & Disease, 2024) are described below.

Entries after “also recorded” stand apart in the source; their conditions may differ.

Experiment [1] has as its system native ACBP/DBI protein (mouse liver extracts). Put plainly: Pull down / immunoprecipitation of native ACBP/DBI from liver extracts. In kind it is binding. To be noted: mouse liver protein extract (500 μg), peptide-coated beads, overnight 4 °C, immunoblot for ACBP. The protocol:
The physical interaction between the native ACBP and GABAARγ2 peptides was examined by standard immunoprecipitation (IP) and immunoblotting protocols. In detail, liver protein extracts (500 μg) were immunoprecipitated on protein A/G-Sepharose beads (Merck Millipore, Burlington, MA, USA, #GE17-0618-01) coated with (1× 2× 4×) either GABAARγ2 wild type (WT) or mutated (F77I) eicosapeptide (Biosynth ltd) or its negative control (PBS). Each IP reaction was incubated overnight (4 °C) in a rotation chamber followed by three consecutive rounds of PBS washing the next day. Each washing round included a PBS resuspension of the pellet and a re-centrifugation (12,000 × g, 4 °C). Finally, beads were resuspended in 20 μL of NUPAGE 4× buffer (Life Technologies, CA, USA, #NP0008), heated at 100 °C (10 min), followed by standard immunoblotting for the ACBP protein (Abcam #ab231910).
Fig. 5 Biophysical and biochemical detection of a direct interaction between ACBP/DBI and the GABAARγ2-derived eicosapeptide. A Schematic representation of the GABAAR and the GABAARγ2-derived eicosapeptides. B Surface plasmon resonance kinetics of ACBP-GABAARγ2-derived eicosapeptide (WT and F77I) interactions. Representative ACBP immunoblot (C) from control- or GABAARγ2-immunoprecipitated samples. Anti-GABAARγ2 immunoprecipitation (IP) assay was employed in order to validate the GABAARγ2 WT peptide interaction with native ACBP (in murine hepatic protein extracts), and quantification (D). […] For statistical analysis p value (indicating statistical comparisons with the control condition) was calculated by Mann–Whitney U-test. E Anti-GABAARγ2 IP assay to address the physical interaction between GABAARγ2 peptides and murine hepatic ACBP protein. Interaction was validated using an increasing gradient of biotinylated WT/F77I peptides that were bound on the surface of streptavidin beads as part of the IP assay. […]
Background: Immunoblotting shows a protein as a band on a membrane.

The subject of experiment [2] is liver autophagy, C57BL/6 mice. The experiment can be described thus: Liver autophagy activation in vivo (LC3 lipidation). On the set-up: species or system mouse. To be noted: C57BL/6 male mice, peptide 5 mg/kg i.v. 4 h and 30 min before sacrifice, with or without leupeptin 30 mg/kg i.p., LC3 immunoblot, n = 5. The protocol:
Ten-week-old C57BL/6 male mice were injected with GABAARγ2 peptides (5 mg/kg, i.v., dissolved in PBS) 4 h and 30 min before sacrifice. For inhibition of the autophagy flux, leupeptin (Leu, 30 mg/kg B.W., dissolved in PBS) was injected 2 h before sacrifice via an intraperitoneal (i.p.) injection. Control animals were i.v. injected with the vehicle (DMSO, 0.01%) and i.p. injected with PBS. All animals were sacrificed, and livers were snap-frozen in liquid nitrogen and stored at −80 °C.
Protein lysates were prepared from liver, epididymal white adipose tissue (eWAT), brown adipose tissue (BAT), muscle, heart or Hep55.1c cells. Immunoblot analysis was performed for GABAARγ2 (Abcam #ab87328), mouse ACBP/DBI (Abcam, #ab231910), Human ACBP (Santa-Cruz #sc-376853), MAP1LC3B (#2775, Cell Signaling Technologies), and β-actin (Abcam, #ab49900), as previously described..

For a further experiment, the system named is C57BL/6 mice. Put plainly: Food intake after intravenous injection. The class given is in vivo, mouse. Particulars: i.v., RecACBP/DBI 0.5 mg/kg + peptide 5× molar excess (pre-incubated 16 h, 4 °C), cumulative food intake 30 min. The protocol: Prior to experimentation, mice were subjected to 24 h starvation followed by individual housing and acclimatization in individual cages (2 h). Subsequently, mice were intravenously (i.v.) injected with recombinant ACBP/DBI protein (RecACBP/DBI) (total volume of 200 μL, 0.5 mg/kg body weight), either alone or in combination with GABAARγ2 peptides (5× molar excess). Cumulative food intake was then analyzed as previously described. Prior to i.v. injections, the RecACBP mixes were pre-incubated (16 h, 4 °C) with GABAARγ2 peptides.

Experiment [3] has as its target T1, recombinant murine ACBP/DBI (Mus musculus, UniProt P31786).
T1 construct: biotin (biotinylated); purchased Institute of Psychiatry and Neuroscience of Paris, France
T1 sequence (P31786 1-87): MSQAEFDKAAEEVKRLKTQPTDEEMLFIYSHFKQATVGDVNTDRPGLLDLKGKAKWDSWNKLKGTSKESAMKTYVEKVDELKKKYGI
The experiment can be described thus: Surface plasmon resonance (Biacore 2000) real time interaction analysis. The class given is binding. To be noted: for interaction with recombinant ACBP/DBI, in words: surface plasmon resonance, HBS-EP pH 7.4, 25 °C, 10 µM and 100 µM peptide. The protocol: Kinetics of interaction of recombinant murine ACBP/DBI (Institute of Psychiatry and Neuroscience of Paris, France) with GABAARγ2 -derived eicosapeptide or its mutated derivative (synthesized by Biosynth ltd) was analyzed by surface plasmon resonance-based biosensor system – Biacore 2000 (Cytiva Life Sciences, Biacore, Uppsala, Sweden). SA sensor chip (Cytiva Life Sciences, Biacore) was activated by three consequent injections of 1 M NaCl, 0.05 M NaOH solution. After washing the sensor chip surface, biotinylated ACBP/DBI was immobilized on it. ACBP was diluted in HBS-EP buffer (10 mM HEPES […], 150 mM NaCl, 3 mM EDTA, and 0.005% Tween-20) at final concentration of 10 µg/mL and injected for 5 min contact time. The achieved immobilization density of ACBP was 1600 resonance units.
All analyses were performed in HBS-EP buffer (0.01 M HEPES pH 7.4, 0.15 M NaCl, 3 mM EDTA, 0.005% v/v Surfactant P20; 0.22 µm filtered and degassed). The system was run at flow rate of 30 μL/min. The temperature on chip surface was set to 25 °C. GABAARγ2-derived eicosapeptide or its mutated derivative (both stocked in DMSO at 1 mg/mL) were diluted in HBS-EP to 10 µM and 100 µM. The peptides were injected over immobilized ACBP/DBI and a control surface (streptavidin alone). The association and dissociation phases of the interaction were followed for 4 and 5 min, respectively. The interaction of peptides with ACBP/DBI was assessed by monitoring the dissociation from the immobilized protein. For visualization of the binding response Graph Pad Prism software was used.

Where [4] appears, read: listed as GABAARγ2-derived eicosapeptide.

In the case of INMEYTIDIFFAQTWYDRRL [GABAARγ2-EP-WT], the “pull down of endogenous/native ACBP/DBI, in words” value in experiment [1] is “efficiently interacts with native and recombinant ACBP/DBI; also recorded: able to interact with ACBP/DBI”; in experiment [1] (setting [4]) it was “validated the interaction”. For the same sequence, the results for the “activation of autophagy in the liver” value in experiment [2] and in experiment [2] (setting [4]) were “activation of autophagy in the liver was induced” and “induced autophagy in the liver”, respectively. The “effect on RecACBP/DBI-induced hyperphagy” value is “abolished; also recorded: efficiently blocked” in the experiment with C57BL/6 mice (n = 4 to 9) and “blocked appetite stimulation by recombinant ACBP/DBI in vivo” in the experiment with C57BL/6 mice (n = 4 to 9, listed as GABAARγ2-derived eicosapeptide). In addition, in experiment [3] (biotinylated recombinant ACBP/DBI on SA chip (1600 RU), peptide 10 µM and 100 µM in HBS-EP, pH 7.4, 25 °C, 30 μL/min, association 4 min, WT vs F77I), the “association with immobilized ACBP/DBI (SPR)” value is listed as “associated more rapidly”. Also, the “dissociation from immobilized ACBP/DBI (SPR)” value in experiment [3] (biotinylated recombinant ACBP/DBI on SA chip (1600 RU), peptide 10 µM and 100 µM in HBS-EP, pH 7.4, 25 °C, 30 μL/min, dissociation 5 min, WT vs F77I) is reported as “dissociated more slowly from ACBP/DBI than GABAARγ2-EP-F77I”. Further, the “interaction with recombinant ACBP/DBI, in words” value was “efficiently interacts with native and recombinant ACBP/DBI; also recorded: able to interact with ACBP/DBI” in experiment [3]; “validated the interaction” in experiment [3] (setting [4]).
